Measurements as given in patent publication US11472807B2, “Purine derivatives for use as medicament and for use in treating neurodegenerative or neuro-inflammatory disorders” (COMMISSARIAT À L'ENERGIE ATOMIQUE ET AUX ENERGIES …, priority 2017, dated 2022).

Columns and labels:
[1] = test system: GFAP and Iba-1 (microglial/astrocytes phenotype); test: GFAP and Iba-1 mRNA in OHSC (RT-qPCR); format: cell-based, mice; conditions: 50 μM, 10 days
Experimental: (§1) FIG. 9. Plots illustrating the effect of Aftin-5 on relative mRNA expression levels of GFAP (left panel) and Iba-1 (right panel) in organotypic hippocampal slice cultures (OHSC). OHSC culture media […] were replaced by incubation medium containing Aftin-5 (50 μM; A50) or vehicle (0.1% DMSO; Veh). 10 days later, total mRNA in lysate was isolated and purified, cDNAs were then synthesized from […] of total mRNA. cDNA were amplified by quantitative RT-PCR and the relative expression of specific genes was normalized to the housekeeping gene HPRT1 (2^−ΔCt). Mann-Whitney tests were performed and show no significant differences between Aftin-5 and control conditions. Data expressed as means+/−SEM from q=3 independent experiments with n=4-6 inserts/condition and 10 slices/insert. […]
(§2) The impact of Aftin-5 on gene expression of different biomarkers was determined by measuring mRNA levels of selected BDNF, CREB, PS95, INS Receptor/IGF-1 receptor, IL-1β, IL-6 in OHSC treated chronically with Aftin-5 or in a total brain from mice exposed to Aftin-5 at either 8 or 30 mg/Kg. […] Threshold cycles (Ct) of target gene and cyclophilin A (Ppia−control housekeeping gene) were recorded and gene expression was calculated as 2^−ΔΔCt(ΔΔCt=ΔCttreated−ΔCtcontrol, ΔCt=Cttarget−CtPpia). […]

[2] = test system: aggregates of β-pleated sheets; test: Thioflavin-S immunohistochemistry of total brain tissue of treated mice; format: in vivo; conditions: mice treated during 28 days
Experimental: C57B1 were exposed subcutaneously to Aftin-5 using osmotic minipumps ([…]; Saint-Germain-Nuelles, France). Aftin-5 was dissolved in DMSO:propylene glycol:ethanol (45:45:10). Mice were treated with 1, 3 or 30 mg/Kg for 28 days. Filled pumps were left in saline overnight at 37° C. for priming. Mice were anesthetized with isoflurane (3-4% v/v, 1.5 mL/min) in an induction chamber and maintained under anesthesia through a mask. Mice were shaved on their back, disinfected and an incision made between the scapulae for pump implantation and finally closed with clips. 1% lidocaine gel was applied over the incision for local analgesia. Animals recovered from anesthesia in heated pads and immediately returned to the cages.
Immunohistochemistry assay was conducted with the total brain tissue, from mice treated with Aftin-5 during 28 days, in the presence of Thioflavin-S dye, which binds aggregates of β-pleated sheets.

[3] = in vitro; conditions: rat
Experimental: A 20% BSA gradient was used for isolation of capillaries. After a second enzymatic digestion, cells were plated in 75 cm^2 coated culture flasks in EBM medium completed by the EGM-2 MV Single Quots kit (Lonza, Basel, Switzerland). Cultures were maintained at 37° C. in a humidified 5% CO2 atmosphere for 5-6 days before being trypsinized and frozen.
The chambers containing human glial cells and brain endothelial cells were considered as the basolateral and apical compartment, respectively. The microplates were then incubated at 37° C. in a 5% CO2 atmosphere. Under these experimental conditions, brain endothelial cells formed a confluent monolayer within 15 days.
After checking BBB integrity, Transwells® with BEC monolayers were transferred to new plates. T buffer (150 mM NaCl, 5.2 mM KCl, 2.2 mM CaCl2, 0.2 mM MgCl2, 6 mM NaHCO3, 2.8 mM glucose and 5 mM Hepes) was added 1.5 mL to the basal chamber (B) and 0.5 ml to the apical chamber (A). […] The Papp value was calculated as followed: Papp=dQ/dT×A×C0 (1) where dQ/dT: amount of drug transported per time-point; A: membrane surface area; Co: donor concentration at time-point 0. […] The mass balance was calculated as follows: R (%)=([(Ap+Bs)/A0]×100 (2) where Ap and Bs are the amount of tested compounds in the apical and basal compartments, respectively. A0 is the initial amount in the donor compartment.

[4] = test system: InsR (insulin-receptor); test: Insulin receptor mRNA in OHSC (RT-qPCR); format: cell-based, mice; conditions: 50 μM for 10 days, P<0.05
Experimental: (§3) FIG. 12. Plots illustrating the effect of Aftin-5 on relative mRNA expression levels of murine insulin-like growth factor-1 receptor (IGF1-R; (A)) and murine insulin receptor (Insr; (B)) in organotypic hippocampal slice cultures (OHSC). OHSC culture media of OHSC were replaced by incubation medium containing Aftin-5 (50 μM; A50) or vehicle (0.1% DMSO; Veh). 10 days later, total mRNA in lysate was isolated and purified, cDNAs were then synthesized from […] of total mRNA. cDNAs were amplified by quantitative RT-PCR and the relative expression of specific genes was normalized to the housekeeping gene HPRT1 (2^−ΔCt) Mann-Whitney tests were performed and *p<0.05 indicates significant differences between Aftin-5 and control conditions. Data expressed as means+/−SEM from q=3 independent experiments with n=4-6 inserts/condition and 10 slices/insert. […]
as §2

[5] = test system: IGF-1R (insulin growth factor receptor 1); test: IGF-1R mRNA in OHSC (RT-qPCR); format: cell-based, mice; conditions: 50 μM for 10 days, P=0.0845
Experimental: as §3, §2

[6] = test system: TNF-α; test: TNF-α mRNA in OHSC (RT-qPCR); format: cell-based, mice; conditions: 50 μM, 10 days
Experimental: as §1, with “FIG. 10.” for “FIG. 9.”, “of interleukin-1-beta (IL-1β; (A)), interleukin-6 (IL-6; (B)), TNF-alpha (TNFα; (C))” for “of GFAP (left panel)”, “and interleukin-10 (IL-10; (D))” for “and Iba-1 (right panel)”, “mRNA. cDNAs” for “mRNA. cDNA”, “and ***p<0.001 indicates” for “and show no”
as §2

CC[C@H](CO)Nc1nc(N(C)c2ccccc2)c2ncn(C(C)C)c2n1 [Aftin-5]
microglial/astrocytes phenotype (GFAP, Iba-1 mRNA) [1]: does not affect
aggregates of β-pleated sheets (Thioflavin-S binding) [2]: absence
Papp at 60 min, 10 μM [3]: ~35 ×10⁻⁶ cm/s
InsR-mRNA [4]: increased dramatically
IGF-1R mRNA [5]: tend to increase
TNF-α mRNA synthesis [6]: no changes
